{"source": "patent US20060275744A1", "about": "“Modified human embryonic stem cells and methods of use to treat neuron-associated disorders” (THE TRUSTEES OF COLUMBIA UNIVERSITY IN THE CITY OF NEW YORK, priority 2004, published 2006)", "key": {"DJ-1 deficient ES cells": {"test_system": "DJ-1 deficient ES cells", "test": "Toxin exposure of DJ-1 deficient versus heterozygous ES cells (MTT, Annexin V/PI FACS, PARP, DHR, protein carbonyls)", "type": "cell-based, murine", "details": "for sensitivity of DJ-1 deficient cells to toxin relative to heterozygous cells (cell viability, MTT): 15 hours exposure", "description": "We generated cells deficient in DJ-1. cDNA for DJ-1 was PCR amplified from human liver cDNA (Clontech) and cloned into the expression vectors pET-28a (Novagen) or pcDNA3.1 (Invitrogen) using standard techniques. Flag-DJ-1 and all described mutants were generated by PCR-mediated mutagenesis. For protein carbonyl quantization (Bian et al. 2003), cells were plated (1.4×10^5 cells per well), grown for 24 hours, and then treated with 10 mM H2O2 as indicated. Cleared lysate ([…]) from each time point was added to 2 M HCl ([…]) with or without 10 mM DNPH and incubated for 1 h at 24° C. with shaking. Proteins were then TCA precipitated and resuspended in […] 6M Guanidinium Chloride. Absorbance was measured at 360 nm, and DNP-conjugated samples were normalized for protein concentration with the underivitized control samples. Undifferentiated ES cells were cultured using standard techniques (Abeliovich et al. 2000). SDIA differentiation of ES cultures was performed as described (Kawasaki et al. 2000) except that ES cells were plated at a density of 500 cells/cm^2 and cocultured with the MS5 mouse stromal cell line (Barberi et al. 2003). Transfections were performed using Lipofectamine 2000 (Life Technologies) for 18-36 hours as per the manufacturer's instructions (Staropoli et al. 2003). Primary cultures and infections were performed as described (Staropoli et al. 2003). A murine embryonic stem (ES) cell clone, F063A04, that harbors a retroviral insertion at the DJ-1 locus was obtained through the German Gene Trap Consortium (http://tikus.gsf.de) (Floss and Wurst 2002). The pT1ATGβgeo gene trap vector is present between exons 6 and 7 of the murine DJ-1 gene, as determined by cDNA sequencing of trapped transcripts and genomic analysis (FIG. 12A). This integration is predicted to disrupt the normal splicing of DJ-1, leading to the generation of a truncated protein that lacks the carboxy-terminal domain required for dimerization and stability. Of note, a mutation that encodes a similarly truncated protein (at the human DJ-1 exon 7 splice acceptor) has been described in a patient with early-onset PD (Hague et al. 2003).\nTo investigate the role of DJ-1 in the oxidative stress response in vivo, DJ-1-deficient homozygous mutant (‘knockout’) cells and DJ-1 heterozygote (‘control’) ES cell clones were analyzed for cell viability in the context of increasing concentrations of H2O2. ES cells plated in 96-well format (2.3×10^4 cells/well) were treated for 15 hours with H2O2 in ES media deficient in b-mercaptoethanol (Abeliovich et al. 2000). Cell viability (as a percent of untreated control) was determined by MTT assay in triplicate (Fezoui et al. 2000). Annexin V/Propidium Iodide (Molecular probes) staining was performed per the manufacturer's instructions. For dihydrorhodamine-123 staining (DHR, Molecular probes) (Walrand et al. 2003), cells were preincubated for 30 min with DHR ([…]), washed with PBS, then treated with H2O2 in ES media deficient in b-mercaptoethanol for 15 min at 37° C. The FACS analysis was performed using a FACSTAR sorter (Becton Dickinson). Dopamine uptake assays were performed essentially as described in Farrer et al. 1998. Reported values represent specific uptake from which non-specific uptake, determined in the presence of mazindol, was subtracted, and normalized for protein content (BCA kit, Pierce).\nHeterozygous cells were used as controls because the ‘knockout’ subclones were derived from these. Cell viability was initially determined by MTT assay in triplicate (Fezoui et al. 2000). […] The increase in AV-positive cells implicated an apoptotic mechanism of cell death (FIG. 12F).\nWe quantified the accumulation of ROS in response to H2O2 treatment in mutant and heterozygous control cells using the ROS-sensitive fluorescent indicator dye dihydrorhodamine-123 (DHR) and FACS analysis. […]"}, "DY1 ES cells": {"test_system": "DY1 ES cells", "test": "Candidate soluble factors in EB or SDIA differentiation of DY1 ES cells", "type": "cell-based, mouse", "details": "for eYFP fluorescence or DAT immunoreactivity: factors added at stages 4-5 of differentiation", "description": "FIG. 11. Effect of different soluble factors on the differentiation of DY1 into dopamine neurons with the EB method. (A) eYFP fluorescence or (B) DAT immunoreactivity was quantified by fluorescent confocal microscopy, see text for details. Data represent the mean±SEM. All results were analyzed by ANOVA. The level of significance is indicated where * p≦0.05 and ** p≦0.005.\nWe used marked ES-derived ‘late’ dopamine neurons to analyze candidate soluble and cell-associated factors in the differentiation process. […] Briefly, DY1 ES cells were differentiated using EB or SDIA and candidate factors were added to the standard differentiation protocol at stages 4-5 of differentiation (Lee et al., 2000).\nWe have tested additional candidate factors that are implicated in the differentiation of dopamine neurons and other CNS neuron classes. For instance, the Notch pathway plays an inhibitory role in early neuronal fate determination in uncommitted proliferative cells including neuronal stem cells (Bixby et al., 2002), as well as inhibitory roles in later events such as neurite outgrowth (Berezovska et al., 1999) in hippocampal cells. […] Another multifunctional factor in the early and late determination of neurons is neuregulin, which inhibits neurogenesis early but subsequently plays a role promoting synapse formation at certain CNS and PNS synapses (Buonanno and Fischbach, 2001). Neuregulin1-β1 appears to have increased the propensity of ES cultures to differentiate into DAT-positive cells."}, "[1]": {"test_system": "DJ-1 deficient dopamine neurons", "test": "6-OHDA exposure of ES-derived dopamine neuron cultures, dopamine uptake assay", "type": "cell-based, murine", "details": "cultures at 9 DIV, 72 hours exposure", "source_text": "FIG. 14. DJ-1 Deficient ES Cultures Display Reduced Dopamine Neuron Production. (A) The SDIA coculture method. ES cells are cocultured with mouse stromal cells (MS5) in the absence of serum and LIF for 18 days in vitro (DIV). (B) Dopamine neuron production was quantified at 18 DIV by [^3H] dopamine uptake assay. DJ-1 deficient ES cultures were defective relative to heterozygous control cultures. (C-D) Neuron production was quantified by immunohistochemical analysis as a percent of Tuj1-positive colonies that express tyrosine hydroxylase (TH) or GAB A. Quantification of TH and GABA immunostaining was performed on all colonies in each of three independent wells. Colonies were scored as positive if any immunostained cells were present. […] (F) Kinetic analysis of dopamine neuron differentiation in DJ-1 deficient cultures (clone 32, solid square) and heterozygous controls (open circle) as quantified by dopamine uptake assay. […] Dopamine neurons were quantified by dopamine uptake assay. Data represent the means±SEM and were analyzed by ANOVA followed by Fisher's post-hoc test. *, p≦0.05.\nTo investigate the role of DJ-1 in the oxidative stress response in vivo, DJ-1-deficient homozygous mutant (‘knockout’) cells and DJ-1 heterozygote (‘control’) ES cell clones were analyzed for cell viability in the context of increasing concentrations of H2O2. […]"}, "MM13 cells": {"test_system": "MM13 cells", "test": "GDNF and BDNF treatment of virally transduced MM13 cells, real-time rtPCR", "type": "cell-based, murine", "details": "10 ng/ml during EB stage 4", "description": "FIG. 23. PitX3 and Nurr1 coordinately regulate extrinsic factor signaling pathways in EB-differentiated ES cultures. […] (B) PitX3 and Nurr1 co-overexpression expands cells that are sensitive to BDNF and GDNF treatment as quantified by rtPCR for the late marker DAT but not the early marker TH. […] Virally transduced MM13 cells were treated with GDNF and BDNF (both 10 ng/ml, from R&D system) during EB stage 4; real-time rtPCR levels are presented as a percentage of the value obtained double (Nurr1 and PitX3) transduction after normalization with β-actin."}, "Nurr1 + PitX3": {"target": "Nurr1 + PitX3 (Homo sapiens, UniProt P43354;O75364 P43354:1-598,O75364:1-302)", "test": "EMSA; cooperative binding of Nurr1 and PitX3", "details": "tags: reticulocyte lysate; also nuclear extracts of EB-differentiated ES cultures; annealed oligonucleotides with overhangs", "description": "Electrophoretic mobility shift assays (EMSA) were performed using an EMSA kit (Novagen) as per the manufacturer's instructions with annealed oligonucleotides for wild-type human DAT promoter sequences (5′-GTCTACTGGATAAGAGCCCGAGGCCGAGGCTGAGACCG-3′ (SEQ ID NO:14) and 5′-CTCAGCCTCGGCCTCGGGCTCTTATCCAGTAGACAGGGT-3′ (SEQ ID NO:15)) or mutant human DAT promoter sequences (5′-GTCTACTGGATGGGAGCCCGATTCCGAGGCTGAGACCG-3′ (SEQ ID NO:16) and 5′-CTCAGCCTCGGAATCGGGCTCCCATCCAGTAGACAGGGT-3′ (SEQ ID NO:17))."}}, "data": [{"molecule": "CC(=O)N[C@@H](CSC(=O)[C@]1([C@@H](O)C(C)C)NC(=O)[C@H](C)[C@@H]1O)C(=O)O", "note": "[lactacystin]", "values": [{"measurement": "sensitivity of DJ-1 deficient cells to toxin relative to heterozygous cells (cell viability, MTT)", "setting": "DJ-1 deficient ES cells", "value": "sensitized"}]}, {"molecule": "CN[C@@H]1C[C@H]2O[C@@](C)([C@@H]1OC)n1c3ccccc3c3c4c(c5c6ccccc6n2c5c31)C(=O)NC4", "note": "[staurosporine]", "values": [{"measurement": "sensitivity of DJ-1 deficient cells to toxin relative to heterozygous cells (cell viability, MTT)", "setting": "DJ-1 deficient ES cells", "value": "did not observe altered sensitivity"}]}, {"molecule": "Sonic Hedgehog", "values": [{"measurement": "eYFP fluorescence or DAT immunoreactivity", "setting": "DY1 ES cells", "value": "significant increase"}]}, {"molecule": "[Cl][Cu][Cl]", "note": "[copper, CuCl2]", "values": [{"measurement": "sensitivity of DJ-1 deficient cells to toxin relative to heterozygous cells (cell viability, MTT)", "setting": "DJ-1 deficient ES cells", "value": "sensitized"}]}, {"molecule": "NCCc1cc(O)c(O)cc1O", "note": "[6-OHDA, 6-hydroxydopamine]", "values": [{"measurement": "sensitivity of DJ-1 deficient dopamine neurons to oxidative stress (dopamine uptake assay)", "setting": "[1]", "value": "increased sensitivity"}]}, {"molecule": "Jagged: soluble receptor Jagged (R&D Systems) protein used to inhibit Notch signaling", "values": [{"measurement": "terminally differentiated dopamine neurons", "setting": "DY1 ES cells; inhibiting Notch signaling with soluble protein", "value": "significant increase"}]}, {"molecule": "tunicamycin", "values": [{"measurement": "sensitivity of DJ-1 deficient cells to toxin relative to heterozygous cells (cell viability, MTT)", "setting": "DJ-1 deficient ES cells", "value": "did not observe altered sensitivity"}]}, {"molecule": "C[C@@H]1C[C@@H]([C@H](O)CC2CC(=O)NC(=O)C2)C(=O)[C@@H](C)C1", "note": "[cycloheximide]", "values": [{"measurement": "sensitivity of DJ-1 deficient cells to toxin relative to heterozygous cells (cell viability, MTT)", "setting": "DJ-1 deficient ES cells", "value": "did not observe altered sensitivity"}]}, {"molecule": "OO", "note": "[H2O2, hydrogen peroxide]", "values": [{"measurement": "accumulation of protein carbonyls", "setting": "DJ-1 deficient ES cells", "value": "normal"}, {"measurement": "protein carbonyl accumulation", "setting": "DJ-1 deficient ES cells", "value": "robustly increased"}, {"measurement": "initial ROS accumulation (DHR, FACS)", "setting": "DJ-1 deficient ES cells; 15 minutes after stimulation, DJ-1 deficient versus heterozygous cells", "value": "unaltered"}, {"measurement": "sensitivity of DJ-1 deficient cells to toxin relative to heterozygous cells (cell viability, MTT)", "setting": "DJ-1 deficient ES cells", "value": "significantly greater toxicity in DJ-1 deficient cells"}, {"measurement": "cleavage of Poly(ADP-ribose)polymerase-1 (PARP)", "setting": "DJ-1 deficient ES cells; knockout cells", "value": "potentiated cleavage"}, {"measurement": "cell death, Annexin V and propidium iodide FACS", "setting": "DJ-1 deficient ES cells; knockout relative to heterozygous cells", "value": "increased cell death of knockout cells"}]}, {"molecule": "GDNF: glial cell-line-derived neurotrophic factor, from R&D system (protein, UniProt P39905 78-211, looked up) Glial cell line-derived …: SPDKQMAVLPRRERNRQAAAANPENSRGKGRRGQRGKNRGCVLTAIHLNVTDLGLGYETKEELIFRYCSGSCDAAETTYDKILKNLSRNRRLVSDKVGQACCRPIAFDDDLSFLDDNLVYHILRKHSAKRCGCI", "values": [{"measurement": "expression of Nurr1 and PitX3", "setting": "MM13 cells", "value": "fails to induce"}]}, {"molecule": "human DAT promoter wild-type EMSA oligo (dsDNA) DNA 1: GTCTACTGGATAAGAGCCCGAGGCCGAGGCTGAGACCG DNA 2: CTCAGCCTCGGCCTCGGGCTCTTATCCAGTAGACAGGGT", "values": [{"measurement": "binding result", "setting": "Nurr1 + PitX3", "value": "binds"}]}, {"molecule": "BDNF: brain-derived neurotrophic factor, from R&D system (protein, UniProt P23560 19-247, looked up) Neurotrophic factor BDNF …: APMKEANIRGQGGLAYPGVRTHGTLESVNGPKAGSRGLTSLADTFEHVIEELLDEDQKVRPNEENNKDADLYTSRVMLSSQVPLEPPLLFLLEEYKNYLDAANMSMRVRRHSDPARRGELSVCDSISEWVTAADKKTAVDMSGGTVTVLEKVPVSKGQLKQYFYETKCNPMGYTKEGCRGIDKRHWNSQCRTTQSYVRALTMDSKKRIGWRFIRIDTSCVCTLTIKRGR", "values": [{"measurement": "expression of Nurr1 and PitX3", "setting": "MM13 cells", "value": "fails to induce"}]}, {"molecule": "FGF-8: fibroblast growth factor-8, candidate soluble factor added to ES differentiation (protein, UniProt P55075 23-233, looked up) Fibroblast growth factor 8: QEGPGRGPALGRELASLFRAGREPQGVSQQHVREQSLVTDQLSRRLIRTYQLYSRTSGKHVQVLANKRINAMAEDGDPFAKLIVETDTFGSRVRVRGAETGLYICMNKKGKLIAKSNGKGKDCVFTEIVLENNYTALQNAKYEGWYMAFTRKGRPRKGSKTRQHQREVHFMKRLPRGHHTTEQSLRFEFLNYPPFTRSLRGSQRTWAPEPR", "values": [{"measurement": "eYFP fluorescence or DAT immunoreactivity", "setting": "DY1 ES cells", "value": "significant increase"}]}]}
